Measured values taken from patent publication US20150181885A1, “METHOD FOR CONTROLLING FUNGAL DISEASES IN MUSHROOM PRODUCTION” (priority 2012, published 2015).

How the values were obtained:
Verticillium fungicola = experiment: In vitro antifungal activity assay in 96-well microtiter plates against Verticillium fungicola; type: cell-based; details: 3 days incubation at 25° C.
Experimental: The following compositions are tested: […] Subsequently, 100 μl of a Verticillium fungicola suspension prepared in PCB medium is used to inoculate each well with 5.0×10^3 spores/ml. […] After incubation of the microtiter plates for 3 days at 25° C., the in vitro antifungal activity (%) of the individual active ingredients was assessed by calculating the reduction in mould growth observed in the presence of the active ingredient in comparison to the mould growth observed in the absence of the active ingredient. The expected antifungal activity (E in %) of the active ingredient combination was calculated according to the Colby equation (Colby, 1967): […] wherein X and Y are the observed antifungal activities (in %) of the individual active ingredients X and Y, respectively.

Trichoderma harzianum = experiment: In vitro antifungal activity assay in 96-well microtiter plates against Trichoderma harzianum; type: cell-based
Experimental: Subsequently, 100 μl of a Verticillium fungicola suspension prepared in PCB medium is used to inoculate each well with 5.0×10^3 spores/ml.
After incubation of the microtiter plates for 3 days at 25° C., the in vitro antifungal activity (%) of the individual active ingredients was assessed by calculating the reduction in mould growth observed in the presence of the active ingredient in comparison to the mould growth observed in the absence of the active ingredient. The expected antifungal activity (E in %) of the active ingredient combination was calculated according to the Colby equation (Colby, 1967): […]
wherein X and Y are the observed antifungal activities (in %) of the individual active ingredients X and Y, respectively. If the observed antifungal activity (O in %) of the combination exceeds the expected antifungal activity (E in %) of the combination and the resulting synergy factor O/E is thus >1.0, the combined application of the active ingredients leads to a synergistic antifungal effect.
The experiment was conducted as described in Example 1, except for the fact that the following compositions were tested: • Control (no active ingredient) • 1.25 ppm Natamycin • 5, 10 or 15 ppm thiophanate-methyl • 1.25 ppm Natamycin+5 ppm thiophanate-methyl • 1.25 ppm Natamycin+10 ppm thiophanate-methyl • 1.25 ppm Natamycin+15 ppm thiophanate-methyl
Furthermore, Trichoderma harzianum was used for inoculation. After 3 and 5 days of incubation at 25° C., the antifungal activity (in %) of the individual and combined active ingredients was determined according to the method described in Example 1.

For `C[C@@H]1C/C=C/C=C/C=C/C=C/[C@H](O[C@@H]2O[C@H](C)[C@@H](O)[C@H](N)[C@@H]2O)C[C@@H]2O[C@](O)(C[C@@H](O)C[C@H]3O[C@@H]3/C=C/C(=O)O1)C[C@H](O)[C@H]2C(=O)O` [Natamycin, natamycin], the “Observed antifungal activity O (%)” value (Verticillium fungicola; Natamycin 2.5 ppm) was 0%.

With `COC(=O)NC(=S)Nc1ccccc1NC(=S)NC(=O)OC` [Thiophanate-methyl, dimethyl 4,4′-(o-phenylene)bis(3-thioallophanate)] the “Observed antifungal activity O (%)” value (Trichoderma harzianum; Thiophanate-methyl 5 ppm, 3 days incubation at 25° C.) was 0%, the “Observed antifungal activity O (%)” value (Trichoderma harzianum; Thiophanate-methyl 10 ppm, 5 days incubation at 25° C.) was 0% and the “Observed antifungal activity O (%)” value (Trichoderma harzianum; Thiophanate-methyl 15 ppm, 5 days incubation at 25° C.) was 0%. The “Observed antifungal activity O (%)” value (Verticillium fungicola; Thiophanate-methyl 15 ppm) was 50% and the “Observed antifungal activity O (%)” value (Verticillium fungicola; Thiophanate-methyl 20 ppm) was 50%.
